Assay results as given in article PMC5515969, “Effects of 31 FDA approved small-molecule kinase inhibitors on isolated rat liver mitochondria” (Archives of Toxicology, 2016).
Read-outs that look alike come from different tables or passages of the source.

Assays:
[1] = tested on: isolated rat liver mitochondria; experiment: Mitochondrial oxygen consumption (glutamate/malate or succinate driven, state 4 and state 3); type: biochemical; conditions: DMSO treated samples set as 1; for State 3 respiration driven by succinate at 10XCmax: key: 0 indicates that the drug had no effects (negative); for State 3 respiration driven by succinate at 1XCmax: key: 0 indicates that the drug had no effects (negative)
Method in brief: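 Rat liver mitochondria (1 mg/ml protein) exposed 5 min to kinase inhibitors in 0.1% DMSO, then O2 consumption measured by Clark-type electrode with glutamate/malate or succinate (state 4), ADP added after 3 min (state 3). Rates normalized to 0.1% DMSO controls set to 1.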

RCC II = molecular target: T1, RCC II (Rattus norvegicus, UniProt P21913+Q641Z9+Q6PCT8+Q920L2); experiment: RCC II activity in submitochondrial particles; type: biochemical; parameters: key: activity relative to DMSO-treated controls (control set as 1 = 100%)
T1 construct: Submitochondrial particles were prepared by subjecting the intact mitochondria to three successive freeze–thaw cycles; from tissue; host or cells: rat liver mitochondria, used as submitochondrial particles
Method in brief: (§1)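 First, submitochondrial particles (1 mg/ml) are incubated with inhibitor for 15 min. Next, complex activities are followed spectrophotometrically, with RCC I taken as the difference between buffers lacking and containing rotenone. Finally, activities are expressed relative to DMSO controls set at 1.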

RCC III = RCC III activity in submitochondrial particles; type: biochemical, rat; parameters: key to RCC III at 100XCmax: activity relative to DMSO-treated controls (control set as 1 = 100%); conditions: 100XCmax
Method in brief: as §1

RCC IV = RCC IV activity in submitochondrial particles; type: biochemical, rat; parameters: key to RCC IV at 50XCmax / RCC IV at 100XCmax: activity relative to DMSO-treated controls (control set as 1 = 100%); conditions: 50XCmax, in %
Method in brief: as §1

RCC V = RCC V activity in submitochondrial particles; type: biochemical, rat; for RCC V at 5XCmax: key: 0 indicates that the drug had no effects (negative)
Method in brief: as §1

[2] = tested on: isolated rat liver mitochondria; experiment: Mitochondrial inner membrane potential (MMP), Rhodamine 123; type: biochemical; conditions: difference in signal between KI and DMSO treated samples at the end of experiments
Description: Fig. 3 KI effects on mitochondrial inner membrane potential (MMP). […] In a, c, data are means and standard derivations from three separate experiments. *p < 0.05 as compared to DMSO-treated samples at the end of experiments. In b, data are means of two independent experiments

[3] = tested on: isolated rat liver mitochondria; conditions: positive control alamethicin treated samples
[4] = ref product labeling, cited from earlier work
[5] = tested on: isolated rat liver mitochondria; experiment: Mitochondrial ROS production (CM-H2DCFDA); conditions: DMSO treated samples set as 1
[6] = relative to DMSO treated samples

T1 sequence (Q920L2 35-656): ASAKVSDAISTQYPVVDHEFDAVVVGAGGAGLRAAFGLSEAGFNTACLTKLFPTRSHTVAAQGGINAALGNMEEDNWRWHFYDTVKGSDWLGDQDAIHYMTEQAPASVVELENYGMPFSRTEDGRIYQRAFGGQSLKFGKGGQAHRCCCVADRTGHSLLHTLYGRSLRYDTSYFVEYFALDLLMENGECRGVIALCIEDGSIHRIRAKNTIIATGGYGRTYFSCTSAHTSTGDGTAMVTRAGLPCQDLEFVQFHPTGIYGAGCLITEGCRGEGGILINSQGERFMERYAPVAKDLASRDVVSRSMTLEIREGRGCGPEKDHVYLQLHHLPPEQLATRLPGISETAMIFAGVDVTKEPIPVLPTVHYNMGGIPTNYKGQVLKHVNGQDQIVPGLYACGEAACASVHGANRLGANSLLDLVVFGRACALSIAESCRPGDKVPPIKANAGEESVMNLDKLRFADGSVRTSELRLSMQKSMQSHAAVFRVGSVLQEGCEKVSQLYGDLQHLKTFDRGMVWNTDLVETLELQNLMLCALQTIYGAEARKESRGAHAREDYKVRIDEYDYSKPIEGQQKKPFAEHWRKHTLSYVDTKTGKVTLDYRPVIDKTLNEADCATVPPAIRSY
T1 sequence (P21913 31-282): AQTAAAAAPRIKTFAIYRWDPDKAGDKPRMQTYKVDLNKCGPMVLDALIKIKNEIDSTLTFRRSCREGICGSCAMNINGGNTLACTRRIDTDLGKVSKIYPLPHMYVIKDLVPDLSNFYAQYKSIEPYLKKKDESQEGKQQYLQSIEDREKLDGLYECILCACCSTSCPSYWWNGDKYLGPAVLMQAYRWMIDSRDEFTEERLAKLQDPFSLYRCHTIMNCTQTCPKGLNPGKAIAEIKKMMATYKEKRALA
T1 sequence (Q641Z9 1-169): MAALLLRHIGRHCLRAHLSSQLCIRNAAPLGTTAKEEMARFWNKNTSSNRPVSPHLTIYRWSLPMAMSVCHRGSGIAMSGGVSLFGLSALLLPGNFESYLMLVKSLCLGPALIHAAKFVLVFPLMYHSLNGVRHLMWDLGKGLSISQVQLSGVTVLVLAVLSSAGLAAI
T1 sequence (Q6PCT8 57-159): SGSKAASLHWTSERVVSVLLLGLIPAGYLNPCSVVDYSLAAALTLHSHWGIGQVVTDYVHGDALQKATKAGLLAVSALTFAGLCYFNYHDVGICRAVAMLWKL

## CC(=O)c1c(C)c2cnc(Nc3ccc(N4CCNCC4)cn3)nc2n(C2CCCC2)c1=O.Cl [palbociclib hydrochloride]
[1]
  State 3 respiration driven by glutamate/malate at 1XCmax: 0
  State 3 respiration driven by succinate at 1XCmax: 0
  State 4 respiration driven by glutamate/malate at 1XCmax: 0
  State 4 respiration driven by succinate at 1XCmax: 0
  State 3 respiration driven by glutamate/malate at 2.5XCmax: 0
  State 3 respiration driven by succinate at 2.5XCmax: 0
  State 4 respiration driven by glutamate/malate at 2.5XCmax: 0
  State 4 respiration driven by succinate at 2.5XCmax: 0
  State 3 respiration driven by glutamate/malate at 5XCmax: 0
  State 3 respiration driven by succinate at 5XCmax: 0
  State 4 respiration driven by glutamate/malate at 5XCmax: 0
  State 4 respiration driven by succinate at 5XCmax: 0
  State 3 respiration driven by glutamate/malate at 10XCmax: 0
  State 3 respiration driven by succinate at 10XCmax: 0
  State 4 respiration driven by glutamate/malate at 10XCmax: 0
  State 4 respiration driven by succinate at 10XCmax: 0
  State 3 respiration driven by glutamate/malate at 20XCmax: 0
  State 3 respiration driven by succinate at 20XCmax: 0
  State 4 respiration driven by glutamate/malate at 20XCmax: 0
  State 4 respiration driven by succinate at 20XCmax: 0
  State 3 respiration driven by glutamate/malate at 30XCmax: 0
  State 3 respiration driven by succinate at 30XCmax: 0
  State 4 respiration driven by glutamate/malate at 30XCmax: 0
  State 4 respiration driven by succinate at 30XCmax: 0
  State 3 respiration driven by glutamate/malate at 50XCmax: 0
  State 3 respiration driven by succinate at 50XCmax: 0
  State 4 respiration driven by glutamate/malate at 50XCmax: 0
  State 4 respiration driven by succinate at 50XCmax: 0
  State 3 respiration driven by glutamate/malate at 100XCmax: 0
  State 3 respiration driven by succinate at 100XCmax: 0
  State 4 respiration driven by glutamate/malate at 100XCmax: 0
  State 4 respiration driven by succinate at 100XCmax: 0
RCC II; DMSO treated samples set as 1
  RCC II at 1.0XCmax: 0
  RCC II at 2.5XCmax: 0
  RCC II at 5XCmax: 0
  RCC II at 10XCmax: 0
  RCC II at 20XCmax: 0
  RCC II at 30XCmax: 0
  RCC II at 50XCmax: 0
  RCC II at 100XCmax: 0
RCC III
  RCC III at 100XCmax: 0
RCC IV; DMSO treated samples set as 1
  RCC IV at 50XCmax: 0
RCC V; DMSO treated samples set as 1
  RCC V at 5XCmax: 0
  RCC V at 50XCmax: 0
[2]
  MMP measured by Rhodamine 123 at 1XCmax: 0
  MMP measured by Rhodamine 123 at 2.5XCmax: 0
  MMP measured by Rhodamine 123 at 5XCmax: 0
  MMP measured by Rhodamine 123 at 10XCmax: 0
  MMP measured by Rhodamine 123 at 20XCmax: 0
  MMP measured by Rhodamine 123 at 30XCmax: 0
  MMP measured by Rhodamine 123 at 50XCmax: 0
  MMP measured by Rhodamine 123 at 100XCmax: 0
[3]
  Cytochrome c release 1XCmax: 0
  Cytochrome c release 2.5XCmax: 0
  Cytochrome c release 5XCmax: 0
  Cytochrome c release 10XCmax: 0
  Cytochrome c release 20XCmax: 0
  Cytochrome c release 30XCmax: 0
  Cytochrome c release 50XCmax: 0
  Cytochrome c release 100XCmax: 0
[4]; 1 DILI positive, 0 negative according to labeling
  DILI potential (based on labeling): 0
[5]
  ROS measured by CM-H2DCFDA at 1XCmax: 0
  ROS measured by CM-H2DCFDA at 2.5XCmax: 0
  ROS measured by CM-H2DCFDA at 5XCmax: 0
  ROS measured by CM-H2DCFDA at 10XCmax: 0
  ROS measured by CM-H2DCFDA at 20XCmax: 0
  ROS measured by CM-H2DCFDA at 30XCmax: 0
  ROS measured by CM-H2DCFDA at 50XCmax: 0
  ROS measured by CM-H2DCFDA at 100XCmax: 0

## N#CC[C@H](C1CCCC1)n1cc(-c2ncnc3[nH]ccc23)cn1 [ruxolitinib phosphate]
[1]
  State 3 respiration driven by glutamate/malate at 1XCmax: 0
  State 3 respiration driven by succinate at 1XCmax: 0
  State 4 respiration driven by glutamate/malate at 1XCmax: 0
  State 4 respiration driven by succinate at 1XCmax: 0
  State 3 respiration driven by glutamate/malate at 2.5XCmax: 0
  State 3 respiration driven by succinate at 2.5XCmax: 0
  State 4 respiration driven by glutamate/malate at 2.5XCmax: 0
  State 4 respiration driven by succinate at 2.5XCmax: 0
  State 3 respiration driven by glutamate/malate at 5XCmax: 0
  State 3 respiration driven by succinate at 5XCmax: 0
  State 4 respiration driven by glutamate/malate at 5XCmax: 0
  State 4 respiration driven by succinate at 5XCmax: 0
  State 3 respiration driven by glutamate/malate at 10XCmax: 0
  State 3 respiration driven by succinate at 10XCmax: 0
  State 4 respiration driven by glutamate/malate at 10XCmax: 0
  State 4 respiration driven by succinate at 10XCmax: 0
  State 3 respiration driven by glutamate/malate at 20XCmax: 0.62±0.05
  State 3 respiration driven by succinate at 20XCmax: 0
  State 4 respiration driven by glutamate/malate at 20XCmax: 0
  State 4 respiration driven by succinate at 20XCmax: 0
  State 3 respiration driven by glutamate/malate at 30XCmax: 0.54±0.02
  State 3 respiration driven by succinate at 30XCmax: 0
  State 4 respiration driven by glutamate/malate at 30XCmax: 0
  State 4 respiration driven by succinate at 30XCmax: 0
  State 3 respiration driven by glutamate/malate at 50XCmax: 0.49±0.06
  State 3 respiration driven by succinate at 50XCmax: 0
  State 4 respiration driven by glutamate/malate at 50XCmax: 0
  State 4 respiration driven by succinate at 50XCmax: 0
  State 3 respiration driven by glutamate/malate at 100XCmax: 0.28±0.06
  State 3 respiration driven by succinate at 100XCmax: 0
  State 4 respiration driven by glutamate/malate at 100XCmax: 0.71±0.08
  State 4 respiration driven by succinate at 100XCmax: 0
RCC II; [6]
  RCC II at 1.0XCmax: 0
  RCC II at 2.5XCmax: 0
  RCC II at 5XCmax: 0
  RCC II at 10XCmax: 0
  RCC II at 20XCmax: 0
  RCC II at 30XCmax: 0
  RCC II at 50XCmax: 0
  RCC II at 100XCmax: 0
RCC III; [6]
  RCC III at 100XCmax: 0
RCC IV; [6]
  RCC IV at 50XCmax: 0
RCC V; [6]
  RCC V at 5XCmax: 0
  RCC V at 50XCmax: 0
[2]
  MMP measured by Rhodamine 123 at 1XCmax: 0
  MMP measured by Rhodamine 123 at 2.5XCmax: 0
  MMP measured by Rhodamine 123 at 5XCmax: 0
  MMP measured by Rhodamine 123 at 10XCmax: 0
  MMP measured by Rhodamine 123 at 20XCmax: 0
  MMP measured by Rhodamine 123 at 30XCmax: 0
  MMP measured by Rhodamine 123 at 50XCmax: 0
  MMP measured by Rhodamine 123 at 100XCmax: 0
[3]
  Cytochrome c release 1XCmax: 0
  Cytochrome c release 2.5XCmax: 0
  Cytochrome c release 5XCmax: 0
  Cytochrome c release 10XCmax: 0
  Cytochrome c release 20XCmax: 0
  Cytochrome c release 30XCmax: 0
  Cytochrome c release 50XCmax: 13.84±2.24 percentage of the positive control group
  Cytochrome c release 100XCmax: 8.09±1.58 percentage of the positive control group
[4]; 1 = DILI positive, 0 = negative
  DILI potential (based on labeling): 0
[5]
  ROS measured by CM-H2DCFDA at 1XCmax: 0
  ROS measured by CM-H2DCFDA at 2.5XCmax: 0
  ROS measured by CM-H2DCFDA at 5XCmax: 0
  ROS measured by CM-H2DCFDA at 10XCmax: 0
  ROS measured by CM-H2DCFDA at 20XCmax: 0
  ROS measured by CM-H2DCFDA at 30XCmax: 0
  ROS measured by CM-H2DCFDA at 50XCmax: 0
  ROS measured by CM-H2DCFDA at 100XCmax: 0
